Reference: US6656509B1, “Combination of selenium-containing compounds with cytostatics” (Biosyn Arzneimittel GmbH, priority 1998, dated 2003)

Tests used:
[1] = test system: pancreatic cancer xenograft PAXF 736; experiment: clonogenic assay, single agents and combination studies; assay type: cell-based, human
Protocol: (§1) The cell mixture was passed through sieves of 200 μm and 50 μm mesh size and washed thereafter twice with PBS. The percentage of viable cells was determined in a Neubauer counting chamber using trypan blue exclusion.
(§2) 8×10^3 to 1,6×10^4 cells were added to 0.2 ml of the same culture medium together with 0.4% agar and placed in already coated 24-multiwell dishes. Test substances were applied by continuous exposure (drug overlay) in 0.2 ml medium. Every dish included six control wells containing the vehicle- and drug-treated groups in triplicate at six concentrations.
(§3) Cultures were incubated at 37° and 7% CO2 in a humidified atmosphere for 5 to 15 days (depending on the doubling time of the tumor stem cells) and monitored for colony growth using an inverted microscope. Within this period, in vitro tumor growth led to the formation of colonies with a diameter of ≧50 μm. At the time of maximum colony formation counts were performed with an automatic image analysis system (OMNICOM Fas IV, Biosys GmbH). […] Drug effects were expressed in terms of the percentage of surviving cells, obtained by comparison of the mean number of colonies in the treated plates with the mean colony count of the untreated controls (test-versus-control-group value, T/C=colony countTreated Group*100/colony countControl Group).
(§4) Coefficient of variation in the control group ≦50%. IC50 and IC70 values were determined by plotting compound concentration versus cell survival rate. Mean IC50 and IC70 values were calculated according to the formula: [formula]
(§5) with x=specific tumor xenograft and n=total number of tumor xenografts studied. If an IC50 or IC70 value could not be determined within the examined dose range, the lowest or highest concentration studied was used for the calculation.
(§6) Each experiment included the chemotherapeutic agents in 6 concentrations, selenium in 2 concentrations (3 and 30 μM), and the combination of all doses with selenium at 3 and 30 μM. All compounds and combinations were studied in triplicates. […] Each experiment was performed twice.
(§7) T/Cexpectd(A+B)=T/C(A)×T/C(B)/100
(§8) For a zero-interactive drug combination (additivity of drug effects) T/Cexpected(A+B)[…]T/Cobserved(A+B). A drug combination is synergistic if T/Cobserved(A+B) is statistically significant[…]T/Cexpected(A+B). Statistical significance was determined by the T-test.

[2] = test system: pancreatic cancer xenograft PAXF 546; experiment: as above; assay type: cell-based, human
Protocol: as §1, §2, §3, §4, §5, §6, §7, §8

O=[Se]([O-])[O-].[Na+].[Na+] [sodium selenite]
Sodium selenite T/C in % ([1]; 3.0 μM alone, X265, X290): 81 ± 12%
Sodium selenite T/C in % ([1]; 30.0 μM alone, X265): 43 ± 8%
Sodium selenite T/C in % ([1]; 30.0 μM alone, X290): 5 ± 2%
Sodium selenite T/C in % ([1]; 30.0 μM alone, X290, listed as selenium): 5%
Test/control (%) at drug concentration [μM] 1. ([1]; PAXF 736/17, X184AM): 88%
Test/control (%) at drug concentration [μM] 10. ([1]; PAXF 736/17, X184AM): 90%
Test/control (%) at drug concentration [μM] 100. ([1]; PAXF 736/17, X184AM): 4%
Test/control (%) at drug concentration [μM] .001 ([1]; PAXF 736/17, X184AM): 87%
Test/control (%) at drug concentration [μM] .01 ([1]; PAXF 736/17, X184AM): 77%
Test/control (%) at drug concentration [μM] .1 ([1]; PAXF 736/17, X184AM): 94%
Test/control (%) class at drug concentration [μM] 1. ([1]; PAXF 736/17, X184AM): − (− (T/C ≧ 50%))
Test/control (%) class at drug concentration [μM] 10. ([1]; PAXF 736/17, X184AM): − (− (T/C ≧ 50%))
Test/control (%) class at drug concentration [μM] 100. ([1]; PAXF 736/17, X184AM): +++ (+++ (T/C ≦ 10%))
Test/control (%) class at drug concentration [μM] .001 ([1]; PAXF 736/17, X184AM): − (− (T/C ≧ 50%))
Test/control (%) class at drug concentration [μM] .01 ([1]; PAXF 736/17, X184AM): − (− (T/C ≧ 50%))
Test/control (%) class at drug concentration [μM] .1 ([1]; PAXF 736/17, X184AM): − (− (T/C ≧ 50%))
Sodium selenite T/C in % ([2]; 3.0 μM alone, X261, X295): 91 ± 8%
Sodium selenite T/C in % ([2]; 30.0 μM alone, X261): 80 ± 13%
Sodium selenite T/C in % ([2]; 30.0 μM alone, X295): 49 ± 6%
Test/control (%) at drug concentration [μM] 1. ([2]; PAXF 546/2, *(2)): 104%
Test/control (%) at drug concentration [μM] 10. ([2]; PAXF 546/2, *(2)): 88%
Test/control (%) at drug concentration [μM] 100. ([2]; PAXF 546/2, *(2)): 2%
Test/control (%) at drug concentration [μM] .001 ([2]; PAXF 546/2, *(2)): 82%
Test/control (%) at drug concentration [μM] .01 ([2]; PAXF 546/2, *(2)): 112%
Test/control (%) at drug concentration [μM] .1 ([2]; PAXF 546/2, *(2)): 100%
Test/control (%) class at drug concentration [μM] 1. ([2]; PAXF 546/2, *(2)): − (− (T/C ≧ 50%))
Test/control (%) class at drug concentration [μM] 10. ([2]; PAXF 546/2, *(2)): − (− (T/C ≧ 50%))
Test/control (%) class at drug concentration [μM] 100. ([2]; PAXF 546/2, *(2)): +++ (+++ (T/C ≦ 10%))
Test/control (%) class at drug concentration [μM] .001 ([2]; PAXF 546/2, *(2)): − (− (T/C ≧ 50%))
Test/control (%) class at drug concentration [μM] .01 ([2]; PAXF 546/2, *(2)): − (− (T/C ≧ 50%))
Test/control (%) class at drug concentration [μM] .1 ([2]; PAXF 546/2, *(2)): − (− (T/C ≧ 50%))
